Patent publication US20250332101A1, “Composition” (priority 2018, published 2025)
Entries after “also recorded” stand apart in the source; their conditions may differ.

How the values were obtained:
[1] = system: immortalized human corneal epithelial cell line (HCE-S); assay: Cell toxicity test in corneal epithelial cells; assay type: cell-based; settings: compared with 3-oxo-C12 HSL and Benzalkonium chloride (BAK)
Experimental: (§1) HCE-S cells (Immortalized Human Corneal Epithelial Cells) were cultured as a monolayer in 90% DMEM supplemented with 10% heat inactivated FBS and penicillin-streptomycin (100 U/mL). Cells were cultured at 37° C. in a humidified incubator with 5% CO2 and growth medium was replaced every three days. HCE-S populations were grown to 80% confluence before passage to 20% using 0.25% Trypsin-EDTA. Prior to each experiment cell populations were estimated using a haemocytometer and trypan blue exclusion assay.

[2] = compared with 3-oxo-C12 HSL; cited from earlier work
Aqueous solubility = assay type: physicochemical
[3] = system: HCE-S transwell barrier model; assay: HCE-S transwell barrier: transcytosis of model drugs; assay type: cell-based, human; settings: pre-treatment of HCE-S for 2 h with 300 μM
Experimental: HCE-S barrier models for transcytosis assays were prepared using an adaptation of a previously described method (Reichl (2008)). HCE-S cells (5×10^4 cells/well) were seeded on transwell inserts (polycarbonate, 3 μm pore size, 1.13 cm^2) and maintained for 7 days refreshing the medium in the apical and basal chambers every second day. After this time cells were cultured for a further 10 days at an apical air interface to encourage development of a multilayer barrier. Prior to each experiment culture medium was replaced with phenol red free DMEM and barrier integrity measured via transepithelial resistance (TER). […]
FIGS. 21A-21D and FIGS. 22Ai-22Biii. Baseline TER was recorded before addition of […] 3-OH-C12 HSL in micelles (assuming 100% drug loading) or equivalent concentrations of micelles only (vehicle control) dissolved in phenol-red free culture medium for 2 h. After this time, TER was recorded before culture medium was replaced with fresh. To the apical chamber, a model drug molecule (FITC-dextran or Avastin) was added and the concentration of this agent in the basolateral chamber was measured either by monitoring FITC fluorescence (FITC-dextran) versus a standard curve of known concentrations or using a commercially available Avastin sandwich ELISA kit as previously described (Davis et al. (2014)). […]

HCE-S tight junctions = assay: HCE-S transwell barrier: transepithelial resistance (TER); assay type: cell-based, human; settings: 2 h exposure, up to 300 μM 3-OH-C12 HSL
Experimental: as §1
HCE-S barrier models for transcytosis assays were prepared using an adaptation of a previously described method (Reichl (2008)). HCE-S cells (5×10^4 cells/well) were seeded on transwell inserts (polycarbonate, 3 μm pore size, 1.13 cm^2) and maintained for 7 days refreshing the medium in the apical and basal chambers every second day. […] Prior to each experiment culture medium was replaced with phenol red free DMEM and barrier integrity measured via transepithelial resistance (TER). […]
FIGS. 21A-21D and FIGS. 22Ai-22Biii. Baseline TER was recorded before addition of […] 3-OH-C12 HSL in micelles (assuming 100% drug loading) or equivalent concentrations of micelles only (vehicle control) dissolved in phenol-red free culture medium for 2 h. After this time, TER was recorded before culture medium was replaced with fresh. […]

[4] = system: RGC in OHT Dark Agouti (DA) rats; assay type: in vivo; settings: topical eye drops from two days prior to induction, three weeks, versus OHT only
[5] = topical formulation, Sigurdsson et al; cited from earlier work
[6] = system: New Zealand albino male rabbits (eye); settings: known; rabbits and humans; cited from earlier work

Molecule: CCCCCCCCCC(O)CC(=O)NC1CCOC1=O (centres unmarked) [3-OH-C12 HSL, 3-hydroxydodecanoyl homoserine lactone]
- cell toxicity (tolerability) [1]: better tolerated
- resistance to hydrolysis [2]: higher resistance to hydrolysis
- water solubility (Aqueous solubility): low water solubility
- transcytosis of 40 kDa FITC Dextran [3]: significantly enhanced
- transcytosis of 149 kDa Avastin [3]: significantly enhanced
- disruption of tight junctions (TER, percentage of control) (HCE-S tight junctions): reversible disruption of Tight junctions

Molecule: COc1cc(/C=C/C(=O)CC(=O)/C=C/c2ccc(O)c(OC)c2)ccc1O [FC]
- RGC density / RGC loss (neuroprotective effect) [4]: did not have this effect; also recorded: no significant protective effect; also recorded: not FC treatment, significantly reduced RGC loss

Molecule: COc1cc(C=CC(=O)CC(=O)C=Cc2ccc(O)c(OC)c2)ccc1O [curcumin, 1,7-bis-(4-hydroxy-3-methoxyphenyl)-1,6-heptadiene-3,5-dione]
- solubility in distilled water (Aqueous solubility; 2 mg/mL curcumin): very poorly soluble

Molecule: C[C@@H]1C[C@H]2[C@@H]3CCC4=CC(=O)C=C[C@]4(C)[C@@]3(F)[C@@H](O)C[C@]2(C)[C@@]1(O)C(=O)CO [dexamethasone]
- entry into the retina by systemic absorption route [5]: 40%
- entry into the retina via topical penetration [5]: 60%

Molecule: Benzalkonium chloride [BAK]
- ocular irritation [6]: potent ocular irritation
